Experimental data published in patent US8268786B2, “Anti-cancer tocotrienol analogues and associated methods” (First Tech International Limited, priority 2009, dated 2012).
Read-outs that look alike come from different tables or passages of the source.

How the values were obtained:
[1] = tested on: ER-negative human breast cancer cells MDA-MB-231; experiment: MTT antiproliferative assay, MDA-MB-231 cells; type: cell-based; settings: for IC50: Homo sapiens
Protocol: (§1) For each of the assays performed the compounds were dissolved in aqueous culture media by binding the compounds with bovine serum albumin (BSA).
(§2) An amount of each compound appropriate for the desired final compound concentration was placed in a 1.5 mL screw top glass vial and dissolved in 100 μL of 100% ethanol. Once dissolved, this ethanol/compound solution was added to a small volume of sterile 10% BSA in water and incubated overnight at 37° C. […] Ethanol was added to all treatment media such that the final ethanol concentration was the same in all treatment groups within a given experiment and was always less than 0.1%. Although the examples provided have been described in conjunction with specified amounts of ethanol and other compounds it should be understood that the invention is applicable to embodiments not having those limited concentration.
(§3) The cell growth of MCF7 (Example 24) and MDA-MB-231 (Example 25) cell lines was measured using the MTT assay procedures described above and an MTT assay kit (TACS™, Trevogen®, Inc., Gaithersburg, Md.). After passing the cells for 3-4 times, growing cells were incubated in a 96-well plate at a density of 8×10^3 cells per well, and allowed to attach for 24 hours. Complete growth medium was then replaced with 100 μL of RPMI serum free medium (GIBCO-Invitrogen, NY) containing various doses (20, 10, 5, 2 μM) of the tested compound and the culture continued at 37° C. under 5% CO2. After 96 hours, the incubated cells were treated with MTT solution (10 μL/well) at 37° C. for 4 hours. The color reaction was stopped by the addition of solubilization/stop solution (100 μL/well). The cells continued to be incubated at 37° C. to completely dissolve the formazan product. Absorbance of the samples was determined at 570 nm with an ELISA plate reader (BioTek, VT). Absorbance readings were converted to estimated cell numbers based on a standard curve prepared by plating various concentration of cells, as determined by hemocytometer, and measuring the absorbance of those cells at the start of each experiment. The IC50 value of each compound was calculated using nonlinear regression (curve fit) of log concentration versus the number of cells/well implemented using GraphPad Prism 5.0 program. The procedure was identical for both human breast cancer cell lines MCF7 and MDA-MB-231.

[2] = tested on: highly malignant+SA mouse mammary epithelial cell line; experiment: MTT antiproliferative assay, +SA mouse mammary epithelial cells; type: cell-based
Protocol: The antiproliferative effects of Compounds 1-21 were tested using 3-(4,5-dimethylthiazol-2-yl)-2,5-diphenyl tetrasolium bromide (MTT) colorimetric assay utilizing cultures of the highly malignant+SA mouse mammary epithelial cell line maintained on serum-free media and containing 10 ng/mL epidermal growth factor (EGF) and 10 μg/mL insulin as mitogens using 24-well culture plates (6 wells/group) by MTT assay.
Cells were then divided into different treatment groups and given fresh control or treatment media every day. In growth inhibition studies, (IC50), +SA cells were treated with various doses of individual tocotrienol or tocotrienol derivatives for 4 days and then the viable cell number was determined using the MTT assay. Optical density of each sample was read at 570 nm on a microplate reader (SpectraCount, Packard BioScience Company, Meriden, Conn.) against a blank prepared from cell-free cultures. The number of cells/well was calculated against a standard curve prepared by plating various concentrations of cells, as determined by hemocytometer, at the start of each experiment. See McIntyre referenced above.
as §1, §2

[3] = tested on: ER-positive human breast cancer cells MCF7; experiment: MTT antiproliferative assay, MCF7 cells; type: cell-based; settings: for IC50: Homo sapiens
Protocol: as §1, §2, §3

[4] = tested on: highly metastatic breast cancer cell line MDA-MB-231; experiment: BME Cell Invasion Assay (Boyden chamber, calcein-AM); type: cell-based, human; settings: MDA-MB-231, 5 μM
Protocol: Anti-Invasion Assays were performed to measure the anti-invasive properties of Compounds 1-21 using a 96 well basement membrane extract “BME” Cell Invasion Assay (Cultrex®, Trevogen, Catalog# 3455-096-K) with the highly metastatic breast cancer cell line MDA-MB-231. This assay employs a simplified Boyden Chamber design with a polyethylene terephthalate membrane (8 μm). Detection of cell invasion is quantified using calcein-AM. Cells internalize calcein-AM and intracellular esterases cleave the acetomethylester moiety to generate free calcein. Free calcein fluoresces brightly, and this fluorescence may be used to quantify the number of cells that have invaded across BME. (See Tamilarasan and Borghesani, referenced above)
About […] of basement membrane extract (BME, 1×) coat was added per well. After overnight incubation at 37° C. in a 5% CO2 incubator, 50,000/50 μL of MDA-MB-231 cells in serum free RPMI medium were added to the top chamber of each well, which contained the tested compound at a treatment concentration of 5 μM. About 150 μL of RPMI medium was added to the lower chamber, which contained 10% fetal bovine serum, penicillin/streptomycin, and fibronectin (1 μL/mL) and N-formyl-met-leu-phe (10 nM) as chemoattractants. Cells were allowed to migrate to the lower chamber at 37° C. in a CO2 incubator. After 24 h, the top and bottom chambers were aspirated and washed with a washing buffer solution. About 100 μL of cell dissociation solution/Calcein-AM solution was added to the bottom chamber and incubated for 1 hour at 37° C. in a CO2 incubator. The cells internalized calcein-AM, and the intracellular esterases cleaved the acetomethylester (AM) moiety to generate free calcein. Fluorescence of the samples was determined at 485 nm excitation; 520 nm emissions were measured using a plate reader (BioTek, VT). The numbers of cells that invaded through the BME coat were calculated using a standard curve.
Differences among the various treatment groups were determined by analysis of variance (ANOVA) followed by Dunnett's t-test. Differences were considered to be statistically significant at a value of <0.05, as compared to vehicle treated controls.

[5] = MDA-MB-231, 96 h, read-out: MDA-MB-231 IC50 μM
[6] = MCF7, 96 h, read-out: MCF7 IC50 μM

Row | Structure (SMILES) | IC50 [1, 5] | activity relative to parent γ-tocotrienol (2) ([2]; +SA cells, versus Compound 2) | IC50 ([2]; Mus musculus, +SA cell, 96 h) | IC50 [3, 6] | IC50 ([3]; MCF7, read-out: IC50 values (range)) | potency relative to parent natural tocotrienol ([3]; MCF7, 4 and 10 versus Compound 1, 8 versus Compound 2) | IC50 ([1]; MDA-MB-231, read-out: IC50 (range)) | antiproliferative activity (in words) ([1]; MDA-MB-231) | antiproliferative activity (in words) ([2]; +SA cells) | anti-invasive activity (in words) [4]
1 | CC(C)=CCC/C(C)=C/CC/C(C)=C/CC[C@]1(C)CCc2cc(OC(=O)NS(=O)(=O)c3ccc(C)cc3)c(C)c(C)c2O1 [Compound 8, (R)-2,7,8-trimethyl-2-((3E,7E)-4,8,12-trimethyltrideca-3,7,11-trienyl)chroman-6-yl tosylcarbamate] | > 10 µM | ~2 fold | 2 µM | 5.1 µM | 5 to 10 µM | ~3 fold | – | – | – | –
2 | CC(C)=CCC/C(C)=C/CC/C(C)=C/CC[C@]1(C)CCc2cc(OC(=O)NS(=O)(=O)c3ccc(C)cc3)cc(C)c2O1 [Compound 9, (R)-2,8-dimethyl-2-((3E,7E)-4,8,12-trimethyltrideca-3,7,11-trienyl)chroman-6-yl tosylcarbamate] | 6.6 µM | – | – | > 10 µM | – | – | 5 to 10 µM | improved activities | activity better than that of its parent tocotrienol | more active than their natural tocotrienol parent compounds
